Source: patent US11786534B2 (TAIHO PHARMACEUTICAL CO., LTD., priority 2019, dated 2023)

Legend:
Format in all cases: biochemical
[1] = target: T1, human EGFR (L858R/T790M/C797S) (Homo sapiens, UniProt P00533, C797S/L858R/T790M); assay: Inhibitory activity against EGFR (L858R/T790M/C797S) kinase
T1 construct: made in house; host or cells: Sf9 insect cells, baculovirus
Description: 2) Measurement of inhibitory activity against EGFR (L858R/T790M/C797S) kinase
The compounds of the presein invention were measured for their inhibitory activity against EGFR (L858R/T790M/C797S) kinase activity.
The materials, measurement procedures and data analysis method used in this test are substantially the same as those shown in the section “Measurement of inhibitory activity against EGFR (d746-750/T790M/C797S) kinase.” However, among the materials, the kinase protein (SEQ ID NO: 2) used was prepared as follows: the cytoplasmic domain of human EGFR (L858R/T790M/C797S) fused at the amino terminal end with a GST tag was expressed in insect cells (Sf9) by the baculovirus expression system and then purified on a glutathione sepharose column. In the measurement procedures, the final concentration of ATP was set to 0.5 μM. Finally, data analysis was conducted to determine the IC50 value (nM) of each compound against EGFR (L858R/T790M/C797S).
In accordance with the same procedures as shown in 2) in Test Example 1, the compounds of the present invention were measured for their inhibitory activity against EGFR (L858R/T790M/C797S) kinase activity.

human EGFR (L858R/C797S) = target: T2, human EGFR (L858R/C797S) (Homo sapiens, UniProt P00533, C797S/L858R); assay: Inhibitory activity against EGFR (L858R/C797S) kinase
T2 construct: purchased SignalChem
Description: 4) Measurement of inhibitory activity against EGFR (L858R/C797S) kinase
The compounds of the present invention were measured for their inhibitory activity aeainst EGFR (L858R/C797S) kinase activity.
The materials, measurement procedures and data analysis method used in this test are stibstantially the same as those shown in the section “Measurement of inhibitory activity against EGFR (d746-750/C797S) kinase.” However, among the materials, the kinase protein used was a purified recombinant human EGFR (C797S/L858R) protein purchased from SignalChem. In the measurement procedures, the final concentration of ATP was set to 4 μM, and the incubation time for kinase reaction was set to 90 minutes. Finally, data analysis was conducted determine the IC50 value (nM) of each compound against EGFR (L858R/C797S).
In accordance with the same procedures as shown in 4) in Test Example 1, the compounds of the present invention were measured for their inhibitor activity against. EGFR (L858R/C797S) kinase activity.

[2] = target: T3, human EGFR (d746-750/C797S) (Homo sapiens, UniProt P00533, C797S/DEL746-750); assay: Inhibitory activity against EGFR (d746-750/C797S) kinase
T3 construct: purchased SignalChem
Description: 3) Measurement of inhibitory activity against EGFR (d746-750/C797S) kinase
The compounds of the present invention were measured for their inhibitory activity against EGFR (d746-750/C797S) kinase activity.
The materials, measurement procedures and data analysis method used in this test are substantially the same as those shown in the section “Measurement of inhibitory activity aiainst EGFR (d746-750/T790M/C797S) kinase.” However, among the materials, the kinase protein used was a purified recombinant human EGFR (d746-750/C797S) protein purchased from SignalChem, while the kinase reaction buffer used was 13.5 mM Tris (pH 7.5) containing 2 mM dithiothreitol and 0.009% Tween-20. In the measurement procedures, the final concentration of ATP was set to 14 μM, the final concentration of maganesium chloride was set to 20 mM, the final concentration of manganese chloride was set to 12.5 mM, the incubation time for kinase reaction was set to 60 minutes, and the final concentration of EDTA used to stop the kinase reaction was set to 40 mM. Finally, data analysis was conducted to determine to IC50 value (nM) of each compound against EGFR (d746-750/C797S).
In accordance with the same procedures as shown in 3) in Test Example 1, the compounds of the present invention were measured for their inhibitory activity against EGFR (d746-750/C797S) kinase activity.

[3] = target: T4, human EGFR (d746-750/T790M/C797S) (Homo sapiens, UniProt P00533, C797S/DEL746-750/T790M); assay: Inhibitory activity against EGFR (d746-750/T790M/C797S) kinase
T4 construct: made in house; host or cells: Sf9 insect cells, baculovirus
Description: 1) Measurement of inhibitory activity against EGFR (d746-750/T790M/C797S) kinase
The compounds of the above examples and comparative examples were measured for their inhibitory activity against EGFR (d746-750/T790M/C797S) kinase activity. Among the materials required for measurement of this inhibitory activity, the kinase protein (SEQ ID NO: 1) used was prepared as follows: the cytoplasmic domain of human EGFR (d746-750/T790M/C797S) fused at the ammo terminal end with a glutathione-S-transferase (GST) tag was expressed M insect cells (Sf9) by the baculovirus expression system and then purified an a glutathione sepharose column. For use as a substrate peptide, a peptide biotinylated at the N-terminal end (biotin -EEPLYWSFPAKKK) was synthesized by reference to Perkin Elmer LabChip® series reagent FL-Peptide 22.
Procedures for measurement of the inhibitory activity are as follows. First, the compounds of the present invention were each dissolved in dimethyl sulfoxide (DMSO), and their serial dilutions were then prepared with DMSO. Secondly, each compound serial dilution (final concentration of DMSO during kinase reaction: 2.5%) or DMSO (final concentration: 2.5%) was mixed with a solution containing the substrate peptide (final concentration: 250 nM), magnesium chloride (final concentration: 10 mM), manganese chloride (final concentration: 10 mM) and ATP (final concentration: 6 μM) in a kinase reaction buffer (Carna Biosciences Inc., Japan), and the EGFR (d746-750/T790M/C797S) protein was further added thereto, followed by incubation at 25° C. for 120 minutes to cause kinase reaction. To the reaction solution, EDTA was added to give a final concentration of 24 mM to thereby stop the reaction, followed by addition of a phospholylated tyrosine detection solution containing europium-labeled anti-phosphorylated tyrosine antibody PT66 (Perkin Elmer) and SureLight APC-SA (Perkin Elmer). The reaction solution was allowed to stand at room temperature for 2 hours or longer. As a background, DMSO was used instead of each compound solution in .DMSO, and EDIA was added prior to the addition of the EGFR EGFR (d746-750/T790M/C797S) protein, followed by incubation at 25° C. for 120 minutes. The same detection solution was also added to this reaction solution, which was then allowed to stand for 2 hours or longer. Finally, all the test samples were measured with a PHERAstar FS reader (BMG LABTECH) for their fluorescence intensity at two wavelengths of 620 nm and 665 nm upon irradiation with an excitation light of 337 nm wavelength, and the ratio of fluorescence intensities at these two wavelengths was obtained as data for each compound.
Moreover, as control compounds, the above Comparative Example A (Example 3 in WO2013/118817) and Comparative Example B (Example 35 in WO2013/118817) known to have EGFR inhibitory activity were used.
In accordance with the same procedures as shown in 1) in Test Example 1, the compounds of the above examples were measured for their inhibitory activity against EGFR (d746-750/T790M/C797S) kinase activity.

human EGFR (WT) = target: T5, human EGFR (WT) (Homo sapiens, UniProt P00533); assay: Inhibitory activity against EGFR (WT) kinase
T5 construct: purchased Carna Biosciences Inc., Japan
Description: The compounds of the present invention were measured for their inhibitory activity nainst EGFR (WT) kinase activity.
The materials, measurement procedures and data analysis method used in this test. are substantially the same as those shown in the section “Measurement of inhibitory activity against EGFR (d746-750/T790M/C797S) kinase.” However, among the materials, the kinase protein used was a purified recombinant human EGFR (WT) purchased from Carna Biosciences Inc., Japan. In the measurement procedures, the final concentration of ATP was set to 1.5 μM. Finally, data analysis was conducted to determine the IC50 value (nM) of each compound against EGFR (WT).
In accordance with the same procedures as shown in 5) in Test Example 1, the compounds of the present invention were measured for their inhibitory activity against. EGFR (WT) kinase activity.

[4] = Test Example 1, Table 3, ATP 0.5 μM
[5] = Test Example 1, Table 5, ATP 4 μM, 90 minutes
[6] = Test Example 1, Table 4, ATP 14 μM, 60 minutes
[7] = Test Example 1, Table 2, ATP 6 μM, 25° C., 120 minutes
[8] = Test Example 1, Table 6, ATP 1.5 μM
[9] = Test Example 3, Table 9; same procedures as 2) in Test Example 1
[10] = Test Example 3, Table 11; same procedures as 4) in Test Example 1
[11] = Test Example 3, Table 10; same procedures as 3) in Test Example 1
[12] = Test Example 3, Table 8; same procedures as 1) in Test Example 1
[13] = Test Example 3, Table 12; same procedures as 5) in Test Example 1

T4 sequence (P00533 with tags, fused parts or gaps DEL746-750/T790M/C797S): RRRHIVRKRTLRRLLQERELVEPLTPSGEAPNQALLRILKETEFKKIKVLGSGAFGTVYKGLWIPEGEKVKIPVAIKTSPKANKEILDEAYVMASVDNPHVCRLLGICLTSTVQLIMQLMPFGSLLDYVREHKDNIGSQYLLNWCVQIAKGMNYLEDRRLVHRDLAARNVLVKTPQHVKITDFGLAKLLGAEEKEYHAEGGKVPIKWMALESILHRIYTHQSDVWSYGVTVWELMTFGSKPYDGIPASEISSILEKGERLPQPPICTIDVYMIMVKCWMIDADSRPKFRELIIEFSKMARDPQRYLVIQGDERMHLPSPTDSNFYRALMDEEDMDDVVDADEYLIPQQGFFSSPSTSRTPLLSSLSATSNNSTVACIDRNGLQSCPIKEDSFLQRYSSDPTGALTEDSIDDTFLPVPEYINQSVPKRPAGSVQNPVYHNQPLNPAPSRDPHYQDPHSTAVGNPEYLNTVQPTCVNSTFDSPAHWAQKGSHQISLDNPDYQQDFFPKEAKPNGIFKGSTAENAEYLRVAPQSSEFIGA
T2 sequence (P00533 25-1210 C797S/L858R): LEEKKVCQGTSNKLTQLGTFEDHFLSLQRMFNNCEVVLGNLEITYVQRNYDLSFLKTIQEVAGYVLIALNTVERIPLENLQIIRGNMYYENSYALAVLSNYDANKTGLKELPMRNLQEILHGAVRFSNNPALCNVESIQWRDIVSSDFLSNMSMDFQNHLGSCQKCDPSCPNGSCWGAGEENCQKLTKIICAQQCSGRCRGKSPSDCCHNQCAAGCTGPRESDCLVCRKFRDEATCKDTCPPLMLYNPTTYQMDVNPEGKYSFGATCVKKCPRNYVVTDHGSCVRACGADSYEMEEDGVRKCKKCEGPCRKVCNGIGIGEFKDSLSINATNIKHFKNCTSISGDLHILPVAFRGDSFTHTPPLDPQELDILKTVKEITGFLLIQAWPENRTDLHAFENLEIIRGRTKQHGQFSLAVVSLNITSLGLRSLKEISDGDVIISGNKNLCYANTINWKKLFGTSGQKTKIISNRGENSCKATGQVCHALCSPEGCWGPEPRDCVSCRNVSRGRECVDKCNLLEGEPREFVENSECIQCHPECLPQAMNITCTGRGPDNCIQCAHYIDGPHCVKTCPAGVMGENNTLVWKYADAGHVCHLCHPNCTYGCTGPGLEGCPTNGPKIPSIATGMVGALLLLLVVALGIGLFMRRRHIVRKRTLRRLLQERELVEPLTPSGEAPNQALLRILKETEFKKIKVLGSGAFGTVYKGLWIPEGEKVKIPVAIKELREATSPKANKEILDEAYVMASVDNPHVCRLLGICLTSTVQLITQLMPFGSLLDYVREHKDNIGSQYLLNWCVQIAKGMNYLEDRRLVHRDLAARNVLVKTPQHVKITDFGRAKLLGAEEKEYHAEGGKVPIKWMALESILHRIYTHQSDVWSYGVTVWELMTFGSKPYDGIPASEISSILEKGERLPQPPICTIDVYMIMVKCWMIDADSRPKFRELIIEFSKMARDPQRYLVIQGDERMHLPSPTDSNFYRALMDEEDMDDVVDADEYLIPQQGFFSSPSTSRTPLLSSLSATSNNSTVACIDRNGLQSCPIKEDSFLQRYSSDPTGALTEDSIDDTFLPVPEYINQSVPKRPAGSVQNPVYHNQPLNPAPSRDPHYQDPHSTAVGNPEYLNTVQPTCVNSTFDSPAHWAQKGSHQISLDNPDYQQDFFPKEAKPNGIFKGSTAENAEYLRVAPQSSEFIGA
T5 sequence (P00533 25-1210): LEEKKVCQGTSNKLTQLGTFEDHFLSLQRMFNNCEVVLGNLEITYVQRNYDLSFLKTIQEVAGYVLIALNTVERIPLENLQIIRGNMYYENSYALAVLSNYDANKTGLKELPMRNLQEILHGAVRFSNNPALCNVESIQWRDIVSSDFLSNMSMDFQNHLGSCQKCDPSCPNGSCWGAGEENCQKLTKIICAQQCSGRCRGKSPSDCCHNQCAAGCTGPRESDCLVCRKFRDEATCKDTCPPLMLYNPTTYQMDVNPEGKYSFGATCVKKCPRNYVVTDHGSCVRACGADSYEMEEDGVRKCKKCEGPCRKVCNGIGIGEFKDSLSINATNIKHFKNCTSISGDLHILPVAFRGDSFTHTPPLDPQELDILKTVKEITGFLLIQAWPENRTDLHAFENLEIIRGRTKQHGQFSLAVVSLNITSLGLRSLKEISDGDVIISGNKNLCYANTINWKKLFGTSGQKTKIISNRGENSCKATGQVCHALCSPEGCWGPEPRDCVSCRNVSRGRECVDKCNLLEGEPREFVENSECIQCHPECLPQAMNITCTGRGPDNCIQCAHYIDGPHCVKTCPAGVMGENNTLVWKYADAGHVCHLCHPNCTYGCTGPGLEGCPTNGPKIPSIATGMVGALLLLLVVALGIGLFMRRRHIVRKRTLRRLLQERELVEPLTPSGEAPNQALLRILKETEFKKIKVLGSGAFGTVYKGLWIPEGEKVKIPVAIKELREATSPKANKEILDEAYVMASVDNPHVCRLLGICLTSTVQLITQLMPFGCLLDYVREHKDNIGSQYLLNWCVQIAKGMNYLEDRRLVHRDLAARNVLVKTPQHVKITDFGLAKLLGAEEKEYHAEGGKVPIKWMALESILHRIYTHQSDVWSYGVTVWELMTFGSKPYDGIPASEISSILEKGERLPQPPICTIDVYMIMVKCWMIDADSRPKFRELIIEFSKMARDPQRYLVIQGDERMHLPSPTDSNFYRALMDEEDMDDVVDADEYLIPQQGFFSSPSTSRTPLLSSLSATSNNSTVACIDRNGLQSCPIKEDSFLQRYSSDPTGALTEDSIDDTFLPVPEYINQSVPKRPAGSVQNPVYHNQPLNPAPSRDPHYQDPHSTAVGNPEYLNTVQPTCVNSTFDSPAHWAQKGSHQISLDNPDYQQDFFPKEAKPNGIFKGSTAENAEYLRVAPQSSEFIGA
T3 sequence (P00533 with tags, fused parts or gaps DEL746-750/C797S): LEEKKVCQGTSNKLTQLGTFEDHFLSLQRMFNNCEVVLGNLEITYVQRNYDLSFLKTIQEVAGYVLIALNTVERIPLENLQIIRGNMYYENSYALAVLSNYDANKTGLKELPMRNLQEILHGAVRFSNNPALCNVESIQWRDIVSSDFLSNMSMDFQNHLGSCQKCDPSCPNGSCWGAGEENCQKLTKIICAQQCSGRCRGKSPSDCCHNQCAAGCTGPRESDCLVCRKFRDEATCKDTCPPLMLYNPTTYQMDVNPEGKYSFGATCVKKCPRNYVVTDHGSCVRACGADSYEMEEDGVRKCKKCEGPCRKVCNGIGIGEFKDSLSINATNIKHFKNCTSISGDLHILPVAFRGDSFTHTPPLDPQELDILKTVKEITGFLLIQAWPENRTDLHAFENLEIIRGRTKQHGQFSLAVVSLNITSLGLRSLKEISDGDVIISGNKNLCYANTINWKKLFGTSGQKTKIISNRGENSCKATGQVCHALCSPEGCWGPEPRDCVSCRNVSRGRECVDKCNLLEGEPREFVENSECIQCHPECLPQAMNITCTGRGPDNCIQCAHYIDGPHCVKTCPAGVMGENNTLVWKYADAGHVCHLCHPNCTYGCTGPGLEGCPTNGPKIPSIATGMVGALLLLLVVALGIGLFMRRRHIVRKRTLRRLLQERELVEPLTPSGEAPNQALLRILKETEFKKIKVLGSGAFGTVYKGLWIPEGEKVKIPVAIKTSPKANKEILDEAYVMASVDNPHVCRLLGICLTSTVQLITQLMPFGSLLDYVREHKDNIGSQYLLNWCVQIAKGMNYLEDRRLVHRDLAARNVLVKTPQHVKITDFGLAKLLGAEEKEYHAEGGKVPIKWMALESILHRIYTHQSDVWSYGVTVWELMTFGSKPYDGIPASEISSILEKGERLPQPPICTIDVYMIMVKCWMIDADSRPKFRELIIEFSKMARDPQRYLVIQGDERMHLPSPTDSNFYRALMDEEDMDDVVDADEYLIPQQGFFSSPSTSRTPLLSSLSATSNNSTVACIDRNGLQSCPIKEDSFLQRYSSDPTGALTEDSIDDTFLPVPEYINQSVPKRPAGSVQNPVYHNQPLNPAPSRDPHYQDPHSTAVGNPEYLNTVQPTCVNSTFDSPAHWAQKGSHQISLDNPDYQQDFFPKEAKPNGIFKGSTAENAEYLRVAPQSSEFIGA
T1 sequence (P00533 with tags, fused parts or gaps T790M/C797S/L858R): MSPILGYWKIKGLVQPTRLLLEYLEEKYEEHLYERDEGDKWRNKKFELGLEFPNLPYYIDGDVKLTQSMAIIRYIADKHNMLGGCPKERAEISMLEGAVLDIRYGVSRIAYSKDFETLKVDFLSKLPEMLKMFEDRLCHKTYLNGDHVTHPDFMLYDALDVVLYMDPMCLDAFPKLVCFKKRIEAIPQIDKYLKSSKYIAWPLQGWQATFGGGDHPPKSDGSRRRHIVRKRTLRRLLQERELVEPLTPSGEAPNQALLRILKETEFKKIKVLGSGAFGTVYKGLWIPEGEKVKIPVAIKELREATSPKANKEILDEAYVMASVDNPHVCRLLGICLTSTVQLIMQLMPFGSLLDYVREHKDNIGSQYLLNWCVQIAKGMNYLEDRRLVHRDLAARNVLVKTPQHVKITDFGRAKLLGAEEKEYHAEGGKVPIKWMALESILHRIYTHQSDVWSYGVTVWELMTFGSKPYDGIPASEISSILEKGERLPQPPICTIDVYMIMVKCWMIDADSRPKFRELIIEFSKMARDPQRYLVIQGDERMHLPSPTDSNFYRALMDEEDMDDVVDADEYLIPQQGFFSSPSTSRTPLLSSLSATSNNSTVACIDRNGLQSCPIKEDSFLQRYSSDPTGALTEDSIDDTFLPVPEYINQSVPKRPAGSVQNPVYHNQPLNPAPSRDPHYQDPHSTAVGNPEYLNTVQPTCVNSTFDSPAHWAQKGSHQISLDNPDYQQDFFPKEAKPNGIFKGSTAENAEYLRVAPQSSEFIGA

Structure (SMILES) | IC50 [1, 4] [nM] | IC50 (human EGFR (L858R/C797S); [5]) [nM] | IC50 [2, 6] [nM] | IC50 [3, 7] [nM] | IC50 (human EGFR (WT); [8]) [nM] | IC50 [1, 9] [nM] | IC50 (human EGFR (L858R/C797S); [10]) [nM] | IC50 [2, 11] [nM] | IC50 [3, 12] [nM] | IC50 (human EGFR (WT); [13]) [nM]
C#Cc1c(-c2cnc3ccccc3c2)c2c(N)ncnc2n1C12CCC(NC(=O)OCC)(CC1)C2 [Example 12, Ethyl (4-(4-amino-6-ethynyl-5-(quinolin-3-yl)-7H-pyrrolo[2,3-d]pyrimidin-7-yl) -bicyclo[2.2.1]heptan-1-yl)carbamate] | 0.39 | 3.8 | 2.4 | < 0.3 | 2.1 |  |  |  |  | 
C#Cc1c(-c2cnc3ccccc3c2)c2c(N)ncnc2n1C12CCC(NC(=O)c3cncn(C)c3=O)(CC1)C2 [Example 25, N-(4-(4-Amino-6-ethynyl-5-(quinolin-3-yl)-7H-pyrrolo[2,3-d]pyrimidin-7-yl)bicyclo-[2.2.1]heptan-1-yl)-1-methyl-6-oxo-1,6-dihydropyrimidine-5-carboxamide] | 0.6 | 0.59 | 0.4 | < 0.3 | 0.51 |  |  |  |  | 
C#Cc1c(-c2cnc3ccccc3c2)c2c(N)ncnc2n1C12CCC(NC(=O)c3cc(S(C)(=O)=O)ccn3)(CC1)C2 [Example 30, N-(4-(4-Amino-6-ethynyl-5-(quinolin-3-yl)-7H-pyrrolo[2,3-d]pyrimidin-7-yl)bicyclo-[2.2.1]heptan-1-yl)-4-(methylsulfonyl)picolinamide] | 0.33 | 1.2 | 0.64 | < 0.3 | 1.9 |  |  |  |  | 
C#Cc1c(-c2cnc3ccccc3c2)c2c(N)ncnc2n1C12CCC(NC(=O)c3cnccc3OC)(CC1)C2 [Example 31, N-(4-(4-Amino-6-ethynyl-5-(quinolin-3-yl)-7H-pyrrolo[2,3-d]pyrimidin-7-yl)bicyclo-[2.2.1]heptan-1-yl)-4-methoxynicotinamide] | 0.52 | 0.62 | 0.49 | < 0.3 | 1.5 |  |  |  |  | 
C#Cc1c(-c2cnc3ccccc3c2)c2c(N)ncnc2n1C12CCC(NC(=O)c3cnc(Cl)cn3)(CC1)C2 [Example 15] | 0.52 | 1 | 0.79 | < 0.3 | 1.5 |  |  |  |  | 
C#Cc1c(-c2cnc3ccccc3c2)c2c(N)ncnc2n1C12CCC(NC(=O)c3cncc(OCF)n3)(CC1)C2 [Example 38, N-(4-(4-Amino-6-ethynyl-5-(quinolin-3-yl)-7H-pyrrolo[2,3-d]pyrimidin-7-yl)-bicyclo-[2.2.1]heptan-1-yl)-6-(fluoromethoxy)pyrazine-2-carboxamide] | 0.66 | 0.97 | 0.56 | < 0.3 | 1.6 |  |  |  |  | 

Continued, values first:

IC50 [1, 4] [nM] | IC50 (human EGFR (L858R/C797S); [5]) [nM] | IC50 [2, 6] [nM] | IC50 [3, 7] [nM] | IC50 (human EGFR (WT); [8]) [nM] | IC50 [1, 9] [nM] | IC50 (human EGFR (L858R/C797S); [10]) [nM] | IC50 [2, 11] [nM] | IC50 [3, 12] [nM] | IC50 (human EGFR (WT); [13]) [nM] | Structure (SMILES)
 |  |  |  |  | 0.47 | 1.7 | 0.83 | 0.37 | 2.2 | C#Cc1c(-c2cnc3ccccc3c2)c2c(N)ncnc2n1C12CCC(NC(=O)OCc3cnccn3)(CC1)C2 [Example 59, Pyrazin-2-ylmethyl (4-(4-amino-6-ethynyl-5-(quinolin-3-yl)-7H-pyrrolo[2,3-d]-pyrimidin-7-yl)bicyclo[2.2.1]heptane-1-yl)carbamate]
 |  |  |  |  | < 0.3 | < 0.3 | 0.4 | < 0.3 | < 0.3 | C#Cc1c(-c2cnc3ccccc3c2)c2c(N)ncnc2n1C12CCC(NC(=O)c3cnc4cnccn34)(CC1)C2 [Example 65]
 |  |  |  |  | < 0.3 | 0.36 | < 0.3 | < 0.3 | 0.43 | C#Cc1c(-c2cnc3ccccc3c2)c2c(N)ncnc2n1C12CCC(NC(=O)c3cnc(CN(C)C)cn3)(CC1)C2 [Example 68, N-(4-(4-Amino-6-ethynyl-5-(quinolin-3-yl)-7H-pyrrolo[2,3-d]pyrimidin-7-yl)bicyclo-[2.2.1]heptan-1-yl)-5-((dimethylamino)methyl)pyrazine-2-carboxamide]
0.34 | 0.99 | 0.83 | < 0.3 | 0.94 |  |  |  |  |  | C#Cc1c(-c2cnc3ccccc3c2)c2c(N)ncnc2n1C12CCC(NC(=O)c3ncccn3)(CC1)C2 [Example 51]
 |  |  |  |  | < 0.3 | 0.32 | 0.86 | < 0.3 | 0.41 | C#Cc1c(-c2cnc3ccccc3c2)c2c(N)ncnc2n1C12CCC(NC(=O)c3cnc4ccccn34)(CC1)C2 [Example 64, N-(4-(4-Amino-6-ethynyl-5-(quinolin-3-yl)-7H-pyrrolo[2,3-d]pyrimidin-7-yl)bicyclo-[2.2.1]heptan-1-yl)imidazo[1,2-a]pyridine-3-carboxamide]
